Measured values from patent US9309283B2, “Prodrugs of peptide epoxy ketone protease inhibitors” (Onyx Therapeutics, Inc., priority 2012, dated 2016).
Each block holds one compound with its values, some of them ahead of it.

Key:
c20s = c20s (Homo sapiens, UniProt P20618+P28074); assay: Purified PI IC50, c20s; format: biochemical
i20s = i20s (Homo sapiens, UniProt P20618+P28062); assay: Purified PI IC50, i20s; format: biochemical
[1] = Conversion to drug in human plasma (%) over time; format: in vitro ADME
[2] = Buffer conversion rates of prodrugs to Compound B; format: physicochemical
[3] = Conversion of prodrugs by Human Liver S9; format: in vitro ADME
[4] = Pharmacokinetic comparison of Compound A and prodrug in mouse; format: in vivo; conditions: dose 5 mg/kg

SMILES: COCCOCCOCCOCCC(=O)N/N=C(/[C@H](CC(C)C)NC(=O)[C@H](Cc1ccccc1)NC(=O)[C@H](CC(C)C)NC(=O)[C@H](CCc1ccccc1)NC(=O)CN1CCOCC1)[C@@]1(C)CO1
Purified PI IC50 Slope c20s (c20s; Table G, * = did not converge): inactive

SMILES: CO/N=C(/[C@H](CC(C)C)NC(=O)[C@H](Cc1ccccc1)NC(=O)[C@H](CC(C)C)NC(=O)[C@H](CCc1ccccc1)NC(=O)CN1CCOCC1)[C@@]1(C)CO1
Purified PI IC50 Slope i20s (i20s; Table G, * = did not converge): inactive

SMILES: CC(C)C[C@H](NC(=O)[C@H](CCc1ccccc1)NC(=O)CN1CCOCC1)C(=O)N[C@@H](Cc1ccccc1)C(=O)N[C@@H](CC(C)C)/C(=N/OCC(=O)O)[C@@]1(C)CO1
Purified PI IC50 Slope c20s (c20s; Table G, * = did not converge): inactive | Purified PI IC50 Slope i20s (i20s; Table G, * = did not converge): inactive

SMILES: CC(C)C[C@H](NC(=O)[C@H](CCc1ccccc1)NC(=O)CN1CCOCC1)C(=O)N[C@@H](Cc1ccccc1)C(=O)N[C@@H](CC(C)C)C(=O)[C@](C)(O)COC(=O)c1c(Cl)cccc1Cl
Purified PI IC50 Slope c20s (c20s; Table G, * = did not converge): inactive

SMILES: COC[C@H](NC(=O)c1cnc(C)s1)C(=O)N[C@@H](COC)C(=O)N[C@@H](Cc1ccccc1)/C(=N/OC)[C@@]1(C)CO1
Purified PI IC50 Slope c20s (c20s; Table H): inactive | Purified PI IC50 Slope i20s (i20s; Table H): inactive | Purified PI IC50 60 minute point i20s (i20s; Table H): inactive

SMILES: COC[C@H](NC(=O)c1cnc(C)s1)C(=O)N[C@@H](COC)C(=O)N[C@@H](Cc1ccccc1)C(=O)[C@](C)(O)COC(C)=O
Purified PI IC50 Slope c20s (c20s; Table H): inactive | Purified PI IC50 60 minute point c20s (c20s; Table H): inactive | Purified PI IC50 Slope i20s (i20s; Table H): inactive | Purified PI IC50 60 minute point i20s (i20s; Table H): inactive

SMILES: COC[C@H](NC(=O)c1cnc(C)s1)C(=O)N[C@@H](COC)C(=O)N[C@@H](Cc1ccccc1)C(=O)[C@](C)(O)COC(=O)c1c(Cl)cccc1Cl
Purified PI IC50 Slope c20s (c20s; Table H): inactive | Purified PI IC50 60 minute point c20s (c20s; Table H): inactive | Purified PI IC50 Slope i20s (i20s; Table H): inactive | Purified PI IC50 60 minute point i20s (i20s; Table H): inactive

SMILES: COC[C@H](NC(=O)c1cnc(C)s1)C(=O)N[C@@H](COC)C(=O)N[C@@H](Cc1ccccc1)C(=O)[C@](C)(O)COP(=O)(c1ccccc1)c1ccccc1
Purified PI IC50 Slope c20s (c20s; Table H): inactive | Purified PI IC50 60 minute point c20s (c20s; Table H): inactive | Purified PI IC50 Slope i20s (i20s; Table H): inactive | Purified PI IC50 60 minute point i20s (i20s; Table H): inactive

SMILES: COCCOCCOCCOCCOCCOCCOCCOCCn1cc(CNC(=O)c2cccc(S(=O)(=O)OCC(C)(O)C(=O)[C@H](CC(C)C)NC(=O)[C@H](Cc3ccccc3)NC(=O)[C@H](CC(C)C)NC(=O)[C@H](CCc3ccccc3)NC(=O)CN3CCOCC3)c2)nn1 (stereo partly drawn)
Conversion to drug in Human Plasma ([1]; 2 min): 7% | Conversion to drug in Human Plasma ([1]; 30 min): 63% | Conversion to drug in Human Plasma ([1]; 1 hr): 100% | Conversion to drug in Human Plasma ([1]; 2 hr): 95% | Conversion to drug in Human Plasma ([1]; 4 hr): 80%

SMILES: COCCOCCOCCOCCOCCOCCOCCOCCn1cc(COCCCS(=O)(=O)OCC(C)(O)C(=O)[C@H](CC(C)C)NC(=O)[C@H](Cc2ccccc2)NC(=O)[C@H](CC(C)C)NC(=O)[C@H](CCc2ccccc2)NC(=O)CN2CCOCC2)nn1 (stereo partly drawn)
Conversion to drug in Human Plasma ([1]; 2 min): 2% | Conversion to drug in Human Plasma ([1]; 30 min): 18% | Conversion to drug in Human Plasma ([1]; 1 hr): 58% | Conversion to drug in Human Plasma ([1]; 2 hr): 90% | Conversion to drug in Human Plasma ([1]; 4 hr): 80%

SMILES: CC(C)C[C@H](NC(=O)[C@H](CCc1ccccc1)NC(=O)CN1CCOCC1)C(=O)N[C@@H](Cc1ccccc1)C(=O)N[C@@H](CC(C)C)C(=O)[C@@]1(C)CO1 [Cmpd A, (S)-4-methyl-N—((S)-1-(((S)-4-methyl-1-((R)-2-methyloxiran-2-yl)-1-oxopentan-2-yl)amino)-1-oxo-3-phenylpropan-2-yl)-2-((S)-2-(2-morpholinoacetamido)-4-phenylbutanamido)pentanamide]
[Cmpd A] ([4]; time 1 hr): 0.008 µM | [Cmpd A] ([4]; time 4 hr): BLOQ | [Cmpd A] ([4]; time 6 hr): BLOQ | [Cmpd A] ([4]; time 24 hr): BLOQ

SMILES: COC[C@H](NC(=O)c1cnc(C)s1)C(=O)N[C@@H](COC)C(=O)N[C@@H](Cc1ccccc1)C(=O)[C@](C)(O)COS(=O)(=O)c1ccc(C)cc1 [compound 21]
Buffer pH = 7.4 % Conversion @ 1 hour [2]: 20.3%

SMILES: COC[C@H](NC(=O)c1cnc(C)s1)C(=O)N[C@@H](COC)C(=O)N[C@@H](Cc1ccccc1)C(=O)[C@](C)(O)COS(=O)(=O)C1CCOCC1 [compound 22]
Buffer pH = 7.4 % Conversion @ 1 hour [2]: 9.8%

SMILES: COC[C@H](NC(=O)c1cnc(C)s1)C(=O)N[C@@H](COC)C(=O)N[C@@H](Cc1ccccc1)C(=O)[C@](C)(O)COS(=O)(=O)Cc1ccccc1 [compound 23]
Buffer pH = 7.4 % Conversion @ 1 hour [2]: 9.6%

SMILES: COC[C@H](NC(=O)c1cnc(C)s1)C(=O)N[C@@H](COC)C(=O)N[C@@H](Cc1ccccc1)C(=O)[C@](C)(O)COS(=O)(=O)Cc1ccccc1 [drawing 371]
Purified PI IC50 Slope i20s (i20s; Table H): inactive

Further lines, results first:

Buffer pH = 7.4 % Conversion @ 1 hour [2]: 24%
SMILES: COC[C@H](NC(=O)c1cnc(C)s1)C(=O)N[C@@H](COC)C(=O)N[C@@H](Cc1ccccc1)C(=O)[C@](C)(O)CI [20-1]

Buffer pH = 7.4 % Conversion @ 1 hour [2]: 0%
SMILES: COC[C@H](NC(=O)c1cnc(C)s1)C(=O)N[C@@H](COC)C(=O)N[C@@H](Cc1ccccc1)C(=O)[C@](C)(O)CCl [20-2]

Buffer pH = 7.4 % Conversion @ 1 hour [2]: 23%
SMILES: COC[C@H](NC(=O)c1cnc(C)s1)C(=O)N[C@@H](COC)C(=O)N[C@@H](Cc1ccccc1)C(=O)[C@](C)(O)CBr [20-3]

Buffer pH = 7.4 % Conversion @ 1 hour [2]: 21.2%
SMILES: COC[C@H](NC(=O)c1cnc(C)s1)C(=O)N[C@@H](COC)C(=O)N[C@@H](Cc1ccccc1)C(=O)[C@](C)(O)COS(=O)(=O)CC(F)(F)F [20-4]

Buffer pH = 7.4 % Conversion @ 1 hour [2]: 13.2%
SMILES: COC[C@H](NC(=O)c1cnc(C)s1)C(=O)N[C@@H](COC)C(=O)N[C@@H](Cc1ccccc1)C(=O)[C@](C)(O)COS(=O)(=O)c1ccc(F)c(F)c1 [20-5]

Buffer pH = 7.4 % Conversion @ 1 hour [2]: 5.7%
SMILES: COC[C@H](NC(=O)c1cnc(C)s1)C(=O)N[C@@H](COC)C(=O)N[C@@H](Cc1ccccc1)C(=O)[C@](C)(O)COS(=O)(=O)CC(F)F [20-6]

Buffer pH = 7.4 % Conversion @ 1 hour [2]: 4.2%
SMILES: CCCCS(=O)(=O)OC[C@@](C)(O)C(=O)[C@H](Cc1ccccc1)NC(=O)[C@H](COC)NC(=O)[C@H](COC)NC(=O)c1cnc(C)s1 [20-7]

Buffer pH = 7.4 % Conversion @ 1 hour [2]: 10.8%
SMILES: CCCCCCCCS(=O)(=O)OC[C@@](C)(O)C(=O)[C@H](Cc1ccccc1)NC(=O)[C@H](COC)NC(=O)[C@H](COC)NC(=O)c1cnc(C)s1 [20-8]

Human Liver S9 % Conversion @ 1 hour [3]: 3%
SMILES: COC[C@H](NC(=O)c1cnc(C)s1)C(=O)N[C@@H](COC)C(=O)N[C@@H](Cc1ccccc1)C(=O)[C@@](C)(CI)OC(=O)CCCCSC(C)=O [20-10]

Human Liver S9 % Conversion @ 1 hour [3]: 11%
SMILES: COC[C@H](NC(=O)c1cnc(C)s1)C(=O)N[C@@H](COC)C(=O)N[C@@H](Cc1ccccc1)C(=O)[C@@](C)(CI)OC(=O)CCCOC(C)=O [20-13]

Human Liver S9 % Conversion @ 1 hour [3]: 30%
SMILES: COC[C@H](NC(=O)c1cnc(C)s1)C(=O)N[C@@H](COC)C(=O)N[C@@H](Cc1ccccc1)C(=O)[C@@](C)(CI)OC(=O)OCc1oc(=O)oc1C [20-15]

Human Liver S9 % Conversion @ 1 hour [3]: 24%
SMILES: CCOC(=O)C(=O)O[C@](C)(CI)C(=O)[C@H](Cc1ccccc1)NC(=O)[C@H](COC)NC(=O)[C@H](COC)NC(=O)c1cnc(C)s1 [20-16]

Human Liver S9 % Conversion @ 1 hour [3]: 1%
SMILES: CCOC(=O)CCC(=O)O[C@](C)(CI)C(=O)[C@H](Cc1ccccc1)NC(=O)[C@H](COC)NC(=O)[C@H](COC)NC(=O)c1cnc(C)s1 [20-17]

Human Liver S9 % Conversion @ 1 hour [3]: 7%
SMILES: COC[C@H](NC(=O)c1cnc(C)s1)C(=O)N[C@@H](COC)C(=O)N[C@@H](Cc1ccccc1)C(=O)[C@@](C)(CI)OC(=O)COc1ccccc1 [20-19]

Human Liver S9 % Conversion @ 1 hour [3]: 28%
SMILES: COC[C@H](NC(=O)c1cnc(C)s1)C(=O)N[C@@H](COC)C(=O)N[C@@H](Cc1ccccc1)C(=O)[C@@](C)(CI)OC(=O)OCc1ccc(OC(C)=O)cc1 [20-22]

Human Liver S9 % Conversion @ 1 hour [3]: 22%
SMILES: COC[C@H](NC(=O)c1cnc(C)s1)C(=O)N[C@@H](COC)C(=O)N[C@@H](Cc1ccccc1)C(=O)[C@@](C)(CI)OC(=O)CCl [20-23]

Human Liver S9 % Conversion @ 1 hour [3]: 29%
SMILES: COC[C@H](NC(=O)c1cnc(C)s1)C(=O)N[C@@H](COC)C(=O)N[C@@H](Cc1ccccc1)C(=O)[C@@](C)(CI)OC=O [20-24]

Human Liver S9 % Conversion @ 1 hour [3]: 14%
SMILES: CCOC(=O)O[C@](C)(CI)C(=O)[C@H](Cc1ccccc1)NC(=O)[C@H](COC)NC(=O)[C@H](COC)NC(=O)c1cnc(C)s1 [20-25]

Human Liver S9 % Conversion @ 1 hour [3]: 32%
SMILES: COC[C@H](NC(=O)c1cnc(C)s1)C(=O)N[C@@H](COC)C(=O)N[C@@H](Cc1ccccc1)C(=O)[C@@](C)(CI)OC(=O)Oc1ccccc1 [20-26]
